Data published in patent US10550143B2, “C,O-spiro aryl glycoside compounds, preparation therefor and use thereof” (SHANGHAI INSTITUTE OF MATERIA MEDICA, CHINESE ACADEMY OF …, priority 2015, dated 2020).

Key:
[1] = molecular target: T1, human sodium-glucose cotransporter 2 (SGLT2) (Homo sapiens, UniProt P31639); assay: In vitro SGLT2 inhibition, methyl-α-D-[U-14C]glucopyranoside uptake in NIH3T3-hSGLT2 cells; type: cell-based; conditions: for inhibition at 0.01 µM: SGLT2, 10 nM, read-out: % Inhibition rate ± SD 10 nM; for inhibition at 0.1 µM: SGLT2, 100 nM, read-out: % Inhibition rate ± SD 100 nM
T1 construct: expressed in transfected cells; host or cells: NIH3T3 (mouse fibroblast) cells expressing hSGLT2
T1 sequence (P31639 1-672): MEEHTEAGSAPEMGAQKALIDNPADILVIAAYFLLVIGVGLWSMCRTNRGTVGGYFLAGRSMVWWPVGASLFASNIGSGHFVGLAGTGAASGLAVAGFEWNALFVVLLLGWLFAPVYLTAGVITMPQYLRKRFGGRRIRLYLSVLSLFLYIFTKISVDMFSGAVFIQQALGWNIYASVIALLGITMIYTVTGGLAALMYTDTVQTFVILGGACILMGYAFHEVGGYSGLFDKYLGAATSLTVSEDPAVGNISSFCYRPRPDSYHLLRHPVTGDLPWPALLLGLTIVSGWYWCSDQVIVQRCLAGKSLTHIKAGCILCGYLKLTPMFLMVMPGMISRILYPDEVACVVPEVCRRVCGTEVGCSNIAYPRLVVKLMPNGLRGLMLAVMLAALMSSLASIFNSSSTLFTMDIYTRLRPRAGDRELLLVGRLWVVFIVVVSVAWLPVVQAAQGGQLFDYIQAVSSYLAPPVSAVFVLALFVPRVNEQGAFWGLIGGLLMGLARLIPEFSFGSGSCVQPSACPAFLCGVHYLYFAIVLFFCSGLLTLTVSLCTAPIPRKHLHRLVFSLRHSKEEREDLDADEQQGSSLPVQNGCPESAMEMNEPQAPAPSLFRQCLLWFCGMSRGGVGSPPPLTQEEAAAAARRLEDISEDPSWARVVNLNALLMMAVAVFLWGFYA
Experimental: Inhibition of the compounds of formula I against human sodium-glucose cotransporter 2 (SGLT2) was determined experimentally and the experimental procedures were carried out as reference^1.
Methyl-α-D-[U-^14C] glucopyranoside (Perkin Elmer) Dimethylsulfoxide (Genebase, Prod No: 0231)
(1) Primary screening of hSGLT2 are conducted with two concentrations, 100 nM and 10 nM;
SGLT2 transports D-glucose at 1:1 sodium-glucose ratio, glucose is replaced by the non-metabolic and isotope labeled methyl-aD-[U-^14C] glucopyranoside and methyl-aD-glucopyranoside, and the amount of isotope transferred into the cells was determined.
1) 0.2% gelatin in a 96-well plate was put in a 37° C. incubator for further use;
2) NIH3T3-hSGLT2 cells were injected into 96-well plates, 40000/well, and 100 μL culture medium per well:
3) the fluid was changed in the next day, and sodium butyrate was added into medium at a final concentration of 2 mM;
4) wash the cells with 100 μL of KRH—Na^+ for 3 times and incubate cells with 50 μL for 30 minutes. Cells were changed to 50 μL of compound in KRH—Na^+, uptake buffer (KRH—Na^+ and methyl-α-D-[U-^14C]glucopyranoside and ⅙ mM methyl-α-D-glucopyranoside at 10 μL per well) was added; KRH-acetylcholine solution was used as background control instead of KRH-Na^+
5) washed with 100 μL PBS for 3 times, dried, 50 μL lysate and 150 μL scintillation fluid were added, the membrane was covered and flattened, shaken on a shaker to mix thoroughly, centrifuged at 1500 rpm at 4° C. for 3 min, taken out and read;
6) the results were analyses.
The inhibition rate (% Inhibiton) of each sample at each concentration was calculated by dividing the value of the compound well value minus the background value by the value of the DMSO control well value minus the background value.
IC50 is calculated as follows: […]
The y value is the activity or inhibition percent, the x value is the concentration of the corresponding compound, top (the maximum y value of the curve), bottom (the minimum y value of the curve).

hSGLT1 = molecular target: T2, hSGLT1 (Homo sapiens, UniProt P13866); assay: In vitro SGLT1 inhibition (hSGLT1 IC50 test); type: cell-based; conditions: read-out: IC50 ± SD SGLT1
T2 sequence (P13866 1-664): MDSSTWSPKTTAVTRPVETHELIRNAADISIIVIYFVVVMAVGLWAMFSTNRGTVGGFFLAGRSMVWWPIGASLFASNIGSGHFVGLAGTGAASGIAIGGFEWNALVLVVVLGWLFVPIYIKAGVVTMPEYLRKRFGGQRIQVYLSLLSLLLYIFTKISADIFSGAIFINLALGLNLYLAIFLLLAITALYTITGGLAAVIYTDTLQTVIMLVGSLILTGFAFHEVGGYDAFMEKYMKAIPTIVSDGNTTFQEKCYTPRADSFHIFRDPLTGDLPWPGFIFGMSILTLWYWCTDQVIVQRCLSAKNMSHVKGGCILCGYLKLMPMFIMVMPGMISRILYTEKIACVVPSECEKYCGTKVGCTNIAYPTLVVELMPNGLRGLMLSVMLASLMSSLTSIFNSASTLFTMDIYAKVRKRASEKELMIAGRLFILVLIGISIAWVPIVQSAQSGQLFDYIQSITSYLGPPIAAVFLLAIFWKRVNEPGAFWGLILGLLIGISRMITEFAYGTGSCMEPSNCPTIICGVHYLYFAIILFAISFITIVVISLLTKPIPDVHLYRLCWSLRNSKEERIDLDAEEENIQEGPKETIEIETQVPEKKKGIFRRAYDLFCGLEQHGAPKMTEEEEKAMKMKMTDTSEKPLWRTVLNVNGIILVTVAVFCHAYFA

db/db mice = assay: Chronic administration, random blood glucose in db/db mice; type: in vivo, mouse; conditions: for random blood glucose Pre: before administration; for Hypoglycemic rate % week 1 / Hypoglycemic rate % week 2 / Hypoglycemic rate % week 3 / Hypoglycemic rate % week 4: random blood glucose
Experimental: Oral gavage administrated, daily dose volume was 10 mL/kg, administered once daily. Administration time was 9: 00-10:00 daily, and the administration period was 5 weeks.
The random blood glucose of mice in the normal control group, model control group, test substance administration group and positive control group were determined on the 7th, 14th, 21st, 28th day (9: 00-10:00) every week after the first administration, and food was removed and after 6 hours of starvation, the fasting blood glucose in each group was measured. Free drinking during the hunger process. The rate of decrease of blood glucose was calculated according to the following formula: Average hypoglycemic rate %=(Blood glucose of model control group−Blood glucose of administration group)/Model control group×100%

SD rats = assay: Acute single administration, urinary glucose changes in SD rats; type: in vivo, rat; design: Urine glucose concentration / The total amount of glucose excreted: unit not given here; conditions: 1 mg/kg oral, after 24 h
Experimental: (1) Acutely Administering Compound to Observed the Urinary Glucose Changes in SD Rats
Thirty-eight male normal SD rats were selected and randomly divided into 5 groups according to body weight and blood glucose, 6-8 in each group. […] After oral gavage, the rats were placed in rats metabolic cages, and urine was collected after 24 h, and the urine volume was recorded, the urine sugar concentration was determined, and urinary sugar content was calculated according to the following formula. Urine content=urinary sugar concentration×urine volume
Glucose levels in urine are measured by the glucose assay kit.
Data were expressed as mean±standard deviation (x±s), and Student's t test was used for statistical analysis of the data, p<0.05 was considered statistically significant.

SMILES: COCCc1ccc(Cc2cc3c(cc2Cl)CO[C@]32O[C@H](C)[C@@H](O)[C@H](O)[C@H]2O)s1 [Example A114, (1S,3′R,4′S,5′S,6′R)-5-chloro-6-((5-(2-methoxyethyl)thiophene-2-yl)methyl)-6′-methyl-3-3′,4′,5′,6′-tetrahydro-3H-spiro[isobenzofuran-1,2′-pyran]-3′,4′,5′-triol]
- Selectivity ([1]; IC50 SGLT1/IC50 SGLT2): 83
- inhibition at 0.01 µM [1]: 18.3 ± 2.2%
- inhibition at 0.1 µM [1]: 71.4 ± 2.8%
- IC50 ([1]; read-out: IC50 ± SD SGLT2): 43.5 ± 11.3 nM
- IC50 (hSGLT1): 3600 ± 260 nM

SMILES: CCCOCCc1ccc(Cc2cc3c(cc2Cl)CO[C@]32O[C@H](C)[C@@H](O)[C@H](O)[C@H]2O)s1 [Example A116, (1S,3′R,4′S,5′S,6′R)-5-chloro-6-((5-(2-propoxyethyl)thiophene-2-yl)methyl)-6′-methyl-3′,4′,5′,6′-tetrahydro-3H-spiro[isobenzofuran-1,2′-pyran]-3′,4′,5′-triol]
- inhibition at 0.01 µM [1]: 89.4 ± 1.5%
- inhibition at 0.1 µM [1]: 62.3 ± 6%

SMILES: CC(=O)c1ccc(Cc2cc3c(cc2Cl)CO[C@]32O[C@H](C)[C@@H](O)[C@H](O)[C@H]2O)s1 [Example A117, 1-(5-(((1S,3′R,4′S,5′S,6′R)-5-chloro-3′,4′,5′-trihydroxy-6′-methyl-3′,4′,5′,6′-tetrahydro-3H-spiro[isobenzofuran-1,2′-pyran]-6-yl)methyl)thiophene-2-yl)ethanone]
- inhibition at 0.01 µM [1]: 30.1 ± 1%
- inhibition at 0.1 µM [1]: 22.6 ± 8.3%

SMILES: CCc1ccc(C(O)c2cc3c(cc2Cl)CO[C@]32O[C@H](C)[C@@H](O)[C@H](O)[C@H]2O)s1 (stereo partly shown) [Example A120]
- inhibition at 0.01 µM [1]: 4 ± 9.2%
- inhibition at 0.1 µM [1]: 22.8 ± 8.1%

SMILES: CCOc1ccc(Cc2cc([C@@H]3O[C@H](CO)[C@@H](O)[C@H](O)[C@H]3O)ccc2Cl)cc1 [dapagliflozin, reference compound]
- inhibition at 0.01 µM [1]: 59.6 ± 11.3%
- inhibition at 0.1 µM [1]: 103 ± 2.8%
- random blood glucose week 1 (db/db mice; 1 mg/kg once daily oral): 14.9 ± 0.9 mmol/L
- random blood glucose week 2 (db/db mice; 1 mg/kg once daily oral): 14.9 ± 1.1 mmol/L
- random blood glucose week 3 (db/db mice; 1 mg/kg once daily oral): 14.9 ± 1.0 mmol/L
- random blood glucose week 4 (db/db mice; 1 mg/kg once daily oral): 14.4 ± 1.1 mmol/L
- random blood glucose Pre (db/db mice; 1 mg/kg once daily oral): 19.3 ± 1.2 mmol/L
- random blood glucose week 1 (db/db mice; 3 mg/kg once daily oral): 13.4 ± 0.8 mmol/L
- random blood glucose week 2 (db/db mice; 3 mg/kg once daily oral): 14.1 ± 0.8 mmol/L
- random blood glucose week 3 (db/db mice; 3 mg/kg once daily oral): 15.2 ± 1.2 mmol/L
- random blood glucose week 4 (db/db mice; 3 mg/kg once daily oral): 11.7 ± 1.0 mmol/L
- random blood glucose Pre (db/db mice; 3 mg/kg once daily oral): 17.5 ± 1.2 mmol/L
- Hypoglycemic rate % week 1 (db/db mice; 1 mg/kg once daily oral): 24.0%
- Hypoglycemic rate % week 2 (db/db mice; 1 mg/kg once daily oral): 23.6%
- Hypoglycemic rate % week 3 (db/db mice; 1 mg/kg once daily oral): 26.4%
- Hypoglycemic rate % week 4 (db/db mice; 1 mg/kg once daily oral): 30.5%
- Hypoglycemic rate % week 1 (db/db mice; 3 mg/kg once daily oral): 32.0%
- Hypoglycemic rate % week 2 (db/db mice; 3 mg/kg once daily oral): 27.7%
- Hypoglycemic rate % week 3 (db/db mice; 3 mg/kg once daily oral): 25.4%
- Hypoglycemic rate % week 4 (db/db mice; 3 mg/kg once daily oral): 43.8%
- The total amount of glucose excreted (SD rats; Table 3): 1860.61 ± 575.28
- Urine glucose concentration (SD rats; Table 3): 251.92 ± 52.98
- Urine volume (SD rats; Table 3, in mL): 40.75 ± 8.60
- The total amount of glucose excreted (SD rats; Table 4): 1822.21 ± 112.97
- Urine glucose concentration (SD rats; Table 4): 382.41 ± 35.64
- Urine volume (SD rats; Table 4, in mL): 26.67 ± 3.01
